In US6878727B2 (Agouron Pharmaceuticals, Inc., priority 2002, dated 2005):

Molecular target: T1, HCV polymerase (Hepatitis C virus genotype 1b, UniProt P26663)
T1 construct: 2.5 pmoles (0.15 μg) HCV polymerase protein in a final volume of 75 μL
Assay: HCV Polymerase Inhibition Assay
Format: biochemical
Conditions: @ 50 μM compound; given where it was impractical to calculate an IC50
Method: HCV Polymerase Inhibition Assay
The above-described compounds were tested for activity with HCV polymerase. Recombinant HCV polymerase was tested for its ability to perform primer/template-directed transcription in assays that contained 30 mM tris-HCl pH 7.2, 10 mM MgCl2, 20 mM NaCl, 1 mM Dithiothreitol (DTT), 0.05% Tween-20, 1% glycerol, 5 pmoles biotin-dG12 (primer), 0.5 pmoles poly(rC)300 (template), 1 μM GTP, 0.1-0.3 uCi α-^32P-GTP, and 2.5 pmoles (0.15 μg) HCV polymerase protein in a final volume of 75 μL. Reactions were initiated by addition of enzyme and incubated 30 minutes at 30° C. Reactions were stopped by addition of 33 mM EDTA, and polynucleotide products were collected by filtration through Diethylaminoethyl (DE) Filtermat papers (Wallac). Unincorporated triphosphate was removed by washing the filters with 5% dibasic sodium phosphate. The filters were counted in a Packard Tri-Lux Microbeta scintillation counter (Packard Bioscience, Meriden, Conn.). Compounds to be tested were added at various concentrations, e.g., 1 μm to 50 μm, from stocks in 10% DMSO-water (final DMSO is 1% in reaction).
IC50 values were estimated from the primary cpm data (collected in triplicate) using the formula: cpm (I)=cpm (no inhibitor)(1−([I]/([I]+IC50))). An IC50 value represents the concentration (in μM) of a compound that provides 50% inhibition of polymerase-directed transcription in the above assay. A percent inhibition value is expressed for a compound where it was impractical to calculate an IC50 value with available data. If the IC50 estimated by the above equation was less than 200 nM, it was recalculated using the following equation, which takes into account the enzyme concentration (30 nM) in the assay: cpm(I)=cpm(no inhibitor)(1−((((I+IC50+30e−9)−sqrt(((I+IC50+30e−9)^2)−4×30e−9×1)))/((2) (30e−9))). Curve fitting was performed using the program KaleidaGraph (Synergy Software, Reading, Pa.).

T1 sequence (P26663 2420-3010): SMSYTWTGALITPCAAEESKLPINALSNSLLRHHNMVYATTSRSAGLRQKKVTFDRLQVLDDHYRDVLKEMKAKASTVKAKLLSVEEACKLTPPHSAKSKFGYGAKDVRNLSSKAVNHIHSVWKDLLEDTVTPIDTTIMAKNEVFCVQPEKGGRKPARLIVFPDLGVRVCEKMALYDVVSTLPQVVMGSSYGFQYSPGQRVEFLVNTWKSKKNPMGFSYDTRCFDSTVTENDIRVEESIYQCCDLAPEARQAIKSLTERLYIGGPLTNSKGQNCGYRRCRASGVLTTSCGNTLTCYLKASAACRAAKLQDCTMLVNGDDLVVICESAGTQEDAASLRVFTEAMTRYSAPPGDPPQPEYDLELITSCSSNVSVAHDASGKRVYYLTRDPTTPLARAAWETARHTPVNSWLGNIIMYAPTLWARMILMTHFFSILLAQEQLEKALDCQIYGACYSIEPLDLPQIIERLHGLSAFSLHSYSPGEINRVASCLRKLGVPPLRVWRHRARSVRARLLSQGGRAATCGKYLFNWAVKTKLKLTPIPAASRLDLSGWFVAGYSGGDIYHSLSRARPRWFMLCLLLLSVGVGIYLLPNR

| Structure (SMILES) | inhibition at 50 µM [%] |
| --- | --- |
| CCOC1=CC(=O)OC(CCC#Cc2cccc(O)c2)(C2CCCC2)C1 (centres unmarked) [Example 15, 6-cyclopentyl-4-ethoxy-6-[4-(3-hydroxy-phenyl)-but-3-ynyl]-5,6-dihydro-pyran-2-one] | 27 |

Same assay, conditions: recombinant HCV polymerase, primer/template-directed transcription (biotin-dG12/poly(rC)300), 30 minutes at 30° C.

| Structure (SMILES) | IC50 [µM] |
| --- | --- |
| COc1ccc(C#CC2(C3CCCC3)CC(=O)CC(=O)O2)cc1 (centres unmarked) [Example 1, 6-cyclopentyl-6-[(4-methoxyphenyl)ethynyl]dihydro-2H-pyran-2,4(3H)-dione] | 12 |
| O=C1CC(=O)OC(C#Cc2nccs2)(C2CCCC2)C1 (centres unmarked) [Example 2, Cyclopentyl-6-(1,3-thiazol-2-ylethynyl)dihydro-2H-pyran-2,4(3H)-dione] | 2.1 |
| CC(C)c1cccc(C#CC2(C3CCCC3)CC(=O)CC(=O)O2)c1 (centres unmarked) [Example 3] | 8.5 |
| COC(=O)Cc1ccc(C#CC2(C3CCCC3)CC(=O)CC(=O)O2)cc1 (centres unmarked) [Example 4] | 64.6 |
| C#CCCC1(C2CCCC2)CC(=O)CC(=O)O1 (centres unmarked) [Example 5, 6-but-3-ynyl-6-cyclopentyl-dihydro-pyran-2,4-dione] | 74 |
| O=C1CC(=O)OC(CCC#Cc2ccccc2)(C2CCCC2)C1 (centres unmarked) [Example 6, 6-cyclopentyl-6-(4-phenyl-but-3-ynyl)-dihydro-pyran-2,4-dione] | 8.29 |
| COc1cccc(C#CCCC2(C3CCCC3)CC(=O)CC(=O)O2)c1 (centres unmarked) [Example 7, 6-Cyclopentyl-6-[4-(3-methoxy-phenyl)-but-3-ynyl]-dihydro-pyran-2,4-dione] | 12.1 |
| O=C1CC(=O)OC(CCC#Cc2ccc3scnc3c2)(C2CCCC2)C1 (centres unmarked) [Example 8, 6-(4-Benzothiazol-5-yl-but-3-ynyl)-6-cyclopentyl-dihydro-pyran-2,4-dione] | 4.5 |
| O=C1CC(=O)OC(CCC#Cc2ccc3c(c2)OCCO3)(C2CCCC2)C1 (centres unmarked) [Example 9, 6-Cyclopentyl-6-[4-(2,3-dihydro-benzo[1,4]dioxin-6-yl)-but-3-ynyl]-dihydro-pyran-2,4-dione] | 11.7 |
| O=C1CC(=O)OC(CCC#Cc2ccc3c(c2)OCO3)(C2CCCC2)C1 (centres unmarked) [Example 10, 6-(4-Benzo[1,3]dioxol-5-yl-but-3-ynyl)-6-cyclopentyl-dihydro-pyran-2,4-dione] | 10.7 |
| CC(=O)Nc1ccc(C#CCCC2(C3CCCC3)CC(=O)CC(=O)O2)cn1 (centres unmarked) [Example 11, N-{5-[4-(2-Cyclopentyl-4,6-dioxo-tetrahydro-pyran-2-yl)-but-1-ynyl]-pyridin-2-yl}-acetamide] | 67 |
| COC(=O)Cc1ccc(C#CCCC2(C3CCCC3)CC(=O)CC(=O)O2)cc1 (centres unmarked) [Example 12, {4-[4-(2-cyclopentyl-4,6-dioxo-tetrahydro-pyran-2-yl)-but-1-ynyl]-phenyl}-acetic acid methyl ester] | 10.2 |
| O=C1CC(=O)OC(CCC#Cc2cccc(O)c2)(C2CCCC2)C1 (centres unmarked) [Example 13, 6-Cyclopentyl-6-[4-(3-hydroxy-phenyl)-but-3-ynyl]-dihydro-pyran-2,4-dione] | 4.5 |
| O=C1CC(=O)OC(CCC#Cc2ccc3ocnc3c2)(C2CCCC2)C1 (centres unmarked) [Example 14, 6-(4-benzooxazol-5-yl-but-3-ynyl)-6-cyclopentyl-dihydro-pyran-2,4-dione] | 5.8 |
| C#CCCC1(C2CCCC2)CC(=O)C(Sc2ccccc2)C(=O)O1 (centres unmarked) [Example 16, 6-But-3-ynyl-6-cyclopentyl-3-phenylsulfanyl-dihydro-pyran-2,4-dione] | 80 |
| O=C1CC(CCC#Cc2cccc(O)c2)(C2CCCC2)OC(=O)C1Sc1ccccc1 (centres unmarked) [Example 17, 6-Cyclopentyl-6-[4-(3-hydroxy-phenyl)-but-3-ynyl]-3-phenylsulfanyl-dihydro-pyran-2,4-dione] | 7.6 |
